Assay results published in patent publication US6995135B2, “Peptides and peptidomimetics having anti-proliferative activity and/or that augment nucleic acid damaging agents or treatments” (priority 2002, dated 2006).
Like-named read-outs stand apart in the source and are kept apart here. Square brackets hold non-standard residues; d marks the D form. Peptide text beside a SMILES is read from it. dPhe(4-NO2) = N[C@H](Cc1ccc([N+](=O)[O-])cc1)C(=O)O; dPhe(F5) = N[C@H](Cc1c(F)c(F)c(F)c(F)c1F)C(=O)O; dBpa = N[C@H](Cc1ccc(C(=O)c2ccccc2)cc1)C(=O)O; dCha = N[C@H](CC1CCCCC1)C(=O)O

Legend:
[1] = Maximal tolerated dose in mouse by single injection; settings: in vivo, observed for a week
[2] = test system: Jurkat cells; experiment: M phase checkpoint abrogation / non specific toxicity in colchicine treated Jurkat cells, flow cytometry; type: cell-based; settings: with 5 μg/ml colchicine, 24 hours
Method: Cell-cycle analysis The cell cycle status of the cells treated with bleomycin or adriamcin were analyzed by flow cytometry as described by Kawabe (1997) Nature 385:454–458. In brief, two million cells were re-suspended and incubated in 200 μul Krishan's solution (0.1% Sodium citrate, 50 μg/ml PI, 20 μg/ml RNase A and 0.5% NP-40) for 1 hr at 4° C. and analyzed by a flow cytometry, FACScan™ (Beckton Dickinson, Mountain View, Calif.) with the program CELLQuest™ (Beckton Dickinson).
Flow cytometry analysis of M phase checkpoint abrogation by the compounds was performed using human T cell leukemia Jurkat cell line treated with colchicine (5 μg/ml or 0.5 μg/ml) and various doses of peptide/peptidomimetics for 24 hr (FIG. 12). The DNA of the cells was stained and analyzed by flow cytometry as described above.
The “Appearance of side effect when used alone” indicates the peptide/peptidomimetic dose that produced Jurkat cell cycle disturbance, i.e., the appearance of significant amounts of SubG1 cells (dead cells) or cells in which the DNA content of each varies more than usual. […]
A comparison between G2 checkpoint abrogating activity and non specific toxicity (M checkpoint abrogation) by CB501 was performed. […] The DNA amount in each of the treated cells was analyzed by flow cytometry, as previously described.

[3] = test system: Jurkat cells; experiment: G2 checkpoint abrogation in bleomycin treated Jurkat cells, flow cytometry; type: cell-based, human; settings: for G2 abrogating dose: Jurkat cells, with 40 μg/ml bleomycine, 24 hours, dose with detectable G2 checkpoint abrogation; for G2 checkpoint abrogating activity (in words): bleomycin (40 μg/ml) treated Jurkat cells, % G2/M cells
Method: Flow cytometry analysis of G2 checkpoint abrogation was performed using human leukemia derived Jurkat cell line. In brief, cultured cells were treated with various doses of peptide/peptidomimetic and 40 μg/ml bleomycine for 24 hr. The DNA of the cells was stained with propidium iodide and analyzed by flow cytometry.
The “Appearance of side effect when used alone” indicates the peptide/peptidomimetic dose that produced Jurkat cell cycle disturbance, i.e., the appearance of significant amounts of SubG1 cells (dead cells) or cells in which the DNA content of each varies more than usual. […] The “G2 abrogating dose” indicates the peptide/peptidomimetic dose with 40 μg/ml bleomycine that produced detectable G2 checkpoint abrogation activity following treatment for 24 hours. The “Appearance of side effect when used with colchicine” indicates the peptide/peptidomimetic dose with 5 μg/ml colchicine that produced Jurkat cell cycle disturbance following treatment for 24 hours.

[4] = molecular target: T1, recombinant human full length Chk1 (Homo sapiens, UniProt O14757); experiment: In vitro kinase inhibition (CycLex), phosphorylation of serine 216 on GST-Cdc25C; type: biochemical
T1 construct: baculovirus derived recombinant human full length Chk1 with histidine tag; histidine tag; host or cells: baculovirus system (insect cells)
T1 sequence (O14757 1-476): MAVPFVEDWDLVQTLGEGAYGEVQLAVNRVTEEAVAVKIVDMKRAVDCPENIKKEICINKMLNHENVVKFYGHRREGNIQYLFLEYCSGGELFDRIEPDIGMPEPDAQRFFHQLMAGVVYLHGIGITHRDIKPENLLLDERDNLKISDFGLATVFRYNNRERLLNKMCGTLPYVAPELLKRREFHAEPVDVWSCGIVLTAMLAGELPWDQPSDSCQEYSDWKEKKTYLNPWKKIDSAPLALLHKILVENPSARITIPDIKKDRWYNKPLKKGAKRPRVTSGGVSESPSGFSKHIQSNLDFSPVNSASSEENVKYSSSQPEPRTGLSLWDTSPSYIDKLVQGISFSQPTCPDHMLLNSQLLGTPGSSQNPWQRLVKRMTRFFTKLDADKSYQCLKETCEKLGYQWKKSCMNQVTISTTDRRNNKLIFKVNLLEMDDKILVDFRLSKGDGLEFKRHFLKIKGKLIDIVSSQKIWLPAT
Method: (§1) In vitro kinase inhibition analysis was performed by CycLex, Co. Ltd., Nagano, Japan. Briefly, baculovirus derived recombinant human full length Chk1 with histidine tag or E. Coli derived recombinant human full length Chk2 fused with GST were used as kinases. E. Coli derived recombinant GST-Cdc25C (amino acis 167–267) was used as a substrate. Reaction conditions were 20 mM Hepes-KOH (pH7.5), 1 mM DTT, […] BSA, 10 mM MgCl2 and […] ATP at 30 degree for 60 min. The phosphorylation of serine 216 on GST-Cdc25C was detected by anti-Cdc25C-phosphorylated S216 antibody with enzyme linked immune assay.

[5] = molecular target: T2, recombinant human full length Chk2 (Homo sapiens, UniProt O96017); experiment: as above; type: biochemical
T2 construct: E. Coli derived recombinant human full length Chk2 fused with GST; host or cells: E. coli
Method: as §1

[6] = Human serum treatment analysis, residual G2 checkpoint abrogating activity; type: in vitro ADME; settings: d-type amino acid peptides compared with l-type peptide such as CBP413
Method: Serum analysis was performed to determine the stability of peptides in mouse and human serum. Briefly, peptides (10 mM or 2.5 mM) were incubated with freshly prepared human serum at 37 degrees for 1 hr. CBP50 (10 mM) was incubated with freshly prepared mouse serum for 1 hr at 37 degree. Jurkat cells were treated with the serum with or without peptides and bleomycin (40 μg/ml) and incubated for 24 hr. The population of G2 phase cells was determined by flow cytometry as previously described. The residual G2 checkpoint abrogating activity of serum treated peptides were determined by comparing the % G2 cells of the treated serum and the standard curve produced with medium treated peptides, bleomycin and Jurkat cells (Table 5A).

T2 sequence (O96017 whole entry, the tested form may be a part): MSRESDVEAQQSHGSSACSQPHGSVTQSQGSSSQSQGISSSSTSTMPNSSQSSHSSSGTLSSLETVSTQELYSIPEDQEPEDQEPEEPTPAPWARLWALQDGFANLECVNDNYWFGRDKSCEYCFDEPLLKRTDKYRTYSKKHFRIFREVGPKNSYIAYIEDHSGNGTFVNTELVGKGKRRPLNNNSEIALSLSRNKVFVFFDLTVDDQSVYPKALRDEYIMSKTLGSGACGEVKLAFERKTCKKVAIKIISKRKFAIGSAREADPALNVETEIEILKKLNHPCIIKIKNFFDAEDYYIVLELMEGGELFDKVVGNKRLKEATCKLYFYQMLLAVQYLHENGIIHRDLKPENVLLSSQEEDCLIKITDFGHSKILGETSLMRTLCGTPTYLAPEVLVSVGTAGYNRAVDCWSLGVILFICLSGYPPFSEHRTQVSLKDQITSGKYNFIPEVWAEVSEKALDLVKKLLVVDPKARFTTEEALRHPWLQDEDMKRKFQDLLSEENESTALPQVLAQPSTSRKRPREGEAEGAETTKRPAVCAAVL

Compound: N=C(N)NCCC[C@H](NC(=O)CNC(=O)[C@@H](N)Cc1ccc(O)cc1)C(=O)N[C@@H](CCCCN)C(=O)N[C@@H](CCCCN)C(=O)N[C@@H](CCCNC(=N)N)C(=O)N[C@@H](CCCNC(=N)N)C(=O)N[C@@H](CCC(N)=O)C(=O)N[C@@H](CCCNC(=N)N)C(=O)N[C@@H](CCCNC(=N)N)C(=O)N[C@@H](CCCNC(=N)N)C(=O)N[C@@H](CC1CCCCC1)C(=O)N[C@@H](Cc1c(F)c(F)c(F)c(F)c1F)C(=O)N[C@@H](CCCNC(=N)N)C(=O)N[C@@H](CO)C(=O)N1CCC[C@H]1C(=O)N[C@@H](CO)C(=O)N[C@@H](Cc1ccc(O)cc1)C(=O)N[C@@H](Cc1ccc(O)cc1)C(=O)O [CBP413, (l-Tyr)(l-Gly)(l-Arg)(l-Lys)(l-Lys)(l-Arg)(l-Arg)(l-Gln)(l-Arg)(l-Arg)(l-Arg)(l-Cha)(l-Phe-2,3,4,5,6-F)(l-Arg)(l-Ser)(l-Pro)(l-Ser)(l-Tyr)(l-Tyr)]
- MTD ([1]; ip, single intra-peritoneal injection, read-out: MTD (ip)): 147 mg/kg
- MTD ([1]; single intravenous injection, read-out: MTD (iv)): 14 mg/kg

Compound: N=C(N)NCCC[C@H](NC(=O)CNC(=O)[C@@H](N)Cc1ccc(O)cc1)C(=O)N[C@@H](CCCCN)C(=O)N[C@@H](CCCCN)C(=O)N[C@@H](CCCNC(=N)N)C(=O)N[C@@H](CCCNC(=N)N)C(=O)N[C@@H](CCC(N)=O)C(=O)N[C@@H](CCCNC(=N)N)C(=O)N[C@@H](CCCNC(=N)N)C(=O)N[C@@H](CCCNC(=N)N)C(=O)N[C@@H](CC1CCCCC1)C(=O)N[C@@H](Cc1c(F)c(F)c(F)c(F)c1F)C(=O)N[C@@H](CCCNC(=N)N)C(=O)N[C@@H](CO)C(=O)N1CCC[C@H]1C(=O)N[C@@H](CO)C(=O)N[C@@H](Cc1ccc(O)cc1)C(=O)O [CBP420, (l-Tyr)(l-Gly)(l-Arg)(l-Lys)(l-Lys)(l-Arg)(l-Arg)(l-Gln)(l-Arg)(l-Arg)(l-Arg)(l-Cha)(l-Phe-2,3,4,5,6-F)(l-Arg)(l-Ser)(l-Pro)(l-Ser)(l-Tyr)]
- Appearance of side effect when used with Colchicine [2]: ≧50 μM

Compound: N=C(N)NCCC[C@@H](NC(=O)[C@@H](CCCCN)NC(=O)[C@@H](CCCCN)NC(=O)[C@@H](CCCNC(=N)N)NC(=O)[C@@H](CCCNC(=N)N)NC(=O)[C@@H](CCC(N)=O)NC(=O)[C@@H](CCCNC(=N)N)NC(=O)[C@@H](CCCNC(=N)N)NC(=O)[C@@H](CCCNC(=N)N)NC(=O)[C@@H](CC1CCCCC1)NC(=O)[C@@H](Cc1c(F)c(F)c(F)c(F)c1F)NC(=O)[C@@H](CCCNC(=N)N)NC(=O)[C@@H](CO)NC(=O)CNC(=O)[C@@H](CO)NC(=O)[C@@H](Cc1ccc(O)cc1)NC(=O)[C@H](N)Cc1ccc(O)cc1)C(=O)NCC(=O)N[C@H](Cc1ccc(O)cc1)C(=O)O [CBP450, (d-Tyr)(d-Tyr)(d-Ser)(l-Gly)(d-Ser)(d-Arg)(d-Phe-2,3,4,5,6-F)(d-Cha)(d-Arg)(d-Arg)(d-Arg)(d-Gln)(d-Arg)(d-Arg)(d-Lys)(d-Lys)(d-Arg)(l-Gly)(d-Tyr)] (H-[dY][dY][dS]G[dS][dR][dPhe(F5)][dCha][dR][dR][dR][dQ][dR][dR][dK][dK][dR]G[dY]-OH; N-terminus and C-terminus assumed)
- G2 abrogating dose [3]: ≧0.78 μM

Compound: N=C(N)NCCC[C@@H](NC(=O)[C@@H](CCCNC(=N)N)NC(=O)[C@@H](CCC(N)=O)NC(=O)[C@@H](CCCNC(=N)N)NC(=O)[C@@H](CCCNC(=N)N)NC(=O)[C@@H](CCCNC(=N)N)NC(=O)[C@@H](CC1CCCCC1)NC(=O)[C@@H](Cc1c(F)c(F)c(F)c(F)c1F)NC(=O)[C@@H](CO)NC(=O)[C@@H](Cc1c[nH]c2ccccc12)NC(=O)[C@@H](CO)NC(=O)[C@@H](Cc1ccc(C(=O)c2ccccc2)cc1)NC(=O)[C@H](N)Cc1ccc(O)cc1)C(=O)O [CBP500, (d-Tyr)(d-Bpa)(d-Ser)(d-Trp)(d-Ser)(d-Phe-2,3,4,5,6-F)(d-Cha)(d-Arg)(d-Arg)(d-Arg)(d-Gln)(d-Arg)(d-Arg)] (H-[dY][dBpa][dS][dW][dS][dPhe(F5)][dCha][dR][dR][dR][dQ][dR][dR]-OH; N-terminus and C-terminus assumed)
- G2 abrogating dose [3]: ≧0.39 μM

Compound: N=C(N)NCCC[C@@H](NC(=O)[C@@H](CCCNC(=N)N)NC(=O)[C@@H](CCC(N)=O)NC(=O)[C@@H](CCCNC(=N)N)NC(=O)[C@@H](CCCNC(=N)N)NC(=O)[C@@H](CCCNC(=N)N)NC(=O)[C@@H](CC1CCCCC1)NC(=O)[C@@H](Cc1c(F)c(F)c(F)c(F)c1F)NC(=O)[C@@H](CC(=O)O)NC(=O)[C@@H](CO)NC(=O)[C@@H](Cc1c[nH]c2ccccc12)NC(=O)[C@@H](CO)NC(=O)[C@H](N)Cc1ccc(C(=O)c2ccccc2)cc1)C(=O)O [CBP506, (d-Bpa)(d-Ser)(d-Trp)(d-Ser)(d-Asp)(d-Phe-2,3,4,5,6-F)(d-Cha)(d-Arg)(d-Arg)(d-Arg)(d-Gln)(d-Arg)(d-Arg)] (H-[dBpa][dS][dW][dS][dD][dPhe(F5)][dCha][dR][dR][dR][dQ][dR][dR]-OH; N-terminus and C-terminus assumed)
- IC50 [4]: 37.6 µM
- IC50 [5]: 67 µM

Compound: N=C(N)NCCC[C@@H](NC(=O)[C@@H](CCCNC(=N)N)NC(=O)[C@@H](CCC(N)=O)NC(=O)[C@@H](CCCNC(=N)N)NC(=O)[C@@H](CCCNC(=N)N)NC(=O)[C@@H](CCCNC(=N)N)NC(=O)[C@@H](CC1CCCCC1)NC(=O)[C@@H](Cc1ccc([N+](=O)[O-])cc1)NC(=O)[C@@H](CO)NC(=O)[C@@H](Cc1c[nH]c2ccccc12)NC(=O)[C@@H](CO)NC(=O)[C@H](N)Cc1ccc(C(=O)c2ccccc2)cc1)C(=O)O [CBP603, (d-Bpa)(d-Ser)(d-Trp)(d-Ser)(d-Phe4No2)(d-Cha)(d-Arg)(d-Arg)(d-Arg)(d-Gln)(d-Arg)(d-Arg)] (H-[dBpa][dS][dW][dS][dPhe(4-NO2)][dCha][dR][dR][dR][dQ][dR][dR]-OH; N-terminus and C-terminus assumed)
- Stability in serum (in words) [6]: more stable in serum

Compound: (d-Arg)(d-Arg)(d-Arg)(d-Arg)(d-Bpa)(d-Arg)(d-Trp)(d-Arg)(d-Phe-2,3,4,5,6-F)(d-Cha) [CBP702]
- G2 checkpoint abrogating activity (in words) [3]: retain G2 checkpoint abrogating activity comparable to other peptides having significant G2 checkpoint abrogating activity

Compound: (d-Arg)(d-Arg)(d-Arg)(d-Bpa)(d-Arg)(d-Arg)(d-Arg)(d-Phe-2,3,4,5,6-F)(d-Cha) [CBP703]
- G2 checkpoint abrogating activity (in words) [3]: retain G2 checkpoint abrogating activity comparable to other peptides having significant G2 checkpoint abrogating activity

Compound: (d-Arg)(d-Arg)(d-Arg)(d-Bpa)(d-Arg)(d-Trp)(d-Arg)(d-Phe-2,3,4,5,6-F)(d-Cha) [CBP701]
- G2 checkpoint abrogating activity (in words) [3]: retain G2 checkpoint abrogating activity comparable to other peptides having significant G2 checkpoint abrogating activity

Compound: (d-Arg)(d-Arg)(d-Bpa)(d-Arg)(d-Arg)(d-Arg)(d-Phe-2,3,4,5,6-F)(d-Cha) [CBP700]
- G2 checkpoint abrogating activity (in words) [3]: retain G2 checkpoint abrogating activity comparable to other peptides having significant G2 checkpoint abrogating activity
